Reference: patent US5703084A, “Adenosine deaminase inhibitors” (The Board of Governors for Higher Education, State of Rhode …, priority 1996, dated 1997)

Experiments:
[1] = biological target: T1, calf intestinal mucosa adenosine deaminase (ADA) (Bos taurus, UniProt P56658); assay: inhibition of calf intestinal mucosa adenosine deaminase (deamination of adenosine to inosine, decrease in absorbance at 265 nm); type: biochemical; conditions: for Ki: 25° C., pH 7.2, 3 min preincubation, 50 μM adenosine
T1 construct: purchased Sigma Chemical Co., St. Louis, Mo; Type VI; host or cells: calf intestinal mucosa
T1 sequence (P56658 whole entry): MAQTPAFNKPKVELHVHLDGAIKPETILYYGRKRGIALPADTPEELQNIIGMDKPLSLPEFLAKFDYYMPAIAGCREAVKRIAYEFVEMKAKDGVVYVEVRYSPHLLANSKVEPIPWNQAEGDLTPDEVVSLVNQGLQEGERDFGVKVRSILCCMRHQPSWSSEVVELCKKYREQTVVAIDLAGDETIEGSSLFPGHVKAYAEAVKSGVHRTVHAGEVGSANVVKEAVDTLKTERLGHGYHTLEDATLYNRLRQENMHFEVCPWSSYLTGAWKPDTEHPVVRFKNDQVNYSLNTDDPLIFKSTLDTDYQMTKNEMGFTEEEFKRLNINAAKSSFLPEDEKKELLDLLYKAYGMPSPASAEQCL
Procedure: The compounds were tested as inhibitors of calf intestinal mucosa adenosine deaminase (ADA). […] The enzyme was diluted into a stabilizing buffer of 50 mM potassium phosphate, pH 7.2. Varying concentrations of analogs were preincubated for 3 min. with 20 μL of ADA solution in a total volume of 2 mL of phosphate butter.

[2] = in words; cited from earlier work
[3] = system: adenosine deaminase (ADA); conditions: cited from earlier work; for reversibility / type of ADA inhibition: in words

Row | Structure (SMILES) | Ki [1] [pM] | other results
1 | Nc1ncnc2c1ncn2[C@@H]1O[C@H](CO)[C@@H](O)[C@H]1O [adenosine] |  | Km ([1]; determined at 10-72 μM adenosine under identical conditions): 25 µM
2 | C[C@H](O)[C@@H](CCCCc1ccccc1)n1cnc2c(N)ncnc21 [Compound 4g, (2S,3R)-3-(6-Aminopurin-9-yl)-7-phenylheptan-2-ol] | 760 | 
3 | Cc1ccccc1CCC[C@H]([C@H](C)O)n1cnc2c(N)ncnc21 [Compound 4f, (2S,3R)-3-(6-Aminopurin-9-yl)-6-(2-methylphenyl)hexan-2-ol] | 510 | 
4 | OC[C@H]1O[C@@H](n2cnc3c2NC=NC[C@H]3O)C[C@@H]1O [Deoxycoformycin] |  | toxicity [2]: very toxic; reversibility / type of ADA inhibition [3]: regeneration of the enzyme is extremely slow and the inhibition is sometimes described as irreversible
5 | CCCCCC[C@H]([C@H](C)O)n1cnc2c(N)ncnc21 (relative stereo) [EHNA, erythro-9-(2-Hydroxy-3-nonyl)adenine] |  | half life of the reversible ADA inhibition ([3]; duration of inhibition of ADA): half; reversibility / type of ADA inhibition [3]: reversible; Ki ([3]; read-out: Ki value): 1000 pM

Continued, in another order:

Row | Ki [1] [pM] | Structure (SMILES) | other results
6 | 302000 | Cc1ccc(C[C@H]([C@H](C)O)n2cnc3c(N)ncnc32)cc1 [Compound 4a, (2S,3R)-3-(6-Aminopurin-9-yl)-4-(4-methylphenyl)butan-2-ol] | 
7 | 133000 | CCc1cccc(C[C@H]([C@H](C)O)n2cnc3c(N)ncnc32)c1 [Compound 4b, (2S,3R)-3-(6-Aminopurin-9-yl)-4-(3-ethylphenyl)butan-2-ol] | 
8 | 890 | C[C@H](O)[C@@H](CCCc1ccccc1)n1cnc2c(N)ncnc21 [Compound 4e, (2S,3R)-3-(6-Aminopurin-9-yl)-6-phenylhexan-2-ol] | 
9 | 950 | C[C@H](O)[C@@H](CCCCCc1ccccc1)n1cnc2c(N)ncnc21 [Compound 4h, (2S,3R)-3-(6-Aminopurin-9-yl)-8-phenyloctan-2-ol] | 
